Type in all cases: functional
The test system of one test is HT-29. As to the kind of experiment: Cytotoxicity against Homo sapiens (human) HT-29 cells assessed as growth inhibition at 10 uM after 24 hr. To be noted: HT-29, 24 h, read-out: GI.
Test [1] is described as follows: Cytotoxicity against Homo sapiens (human) breast cancer cells after 48 hr by SRB assay. To be noted: Cancer cell lines.
The next test deals with SN12C. As to the kind of experiment: Cytotoxicity against Homo sapiens (human) SN12C cells assessed as growth inhibition at 10 uM after 24 hr. The conditions noted are these: read-out: GI.
A further test deals with HL-60(TB). Nature of the test: Cytotoxicity against Homo sapiens (human) HL-60(TB) cells assessed as growth inhibition at 10 uM after 24 hr. To be noted: HL-60, 24 h, read-out: GI.
A short description of test [2]: Cytotoxicity against Homo sapiens (human) CNS cancer cells after 48 hr by SRB assay. The conditions noted are these: Cancer cell lines. Background: The SRB assay estimates cell density from bound dye.
A further test deals with MDA-MB-435. Nature of the test: Cytotoxicity against Homo sapiens (human) MDA-MB-435 cells after 48 hr by SRB assay. The conditions noted are these: MDA-MB-435, 48 h.
The next test concerns MCF7. As to the kind of experiment: Cytotoxicity against Homo sapiens (human) MCF7 cells assessed as growth inhibition at 10 uM after 24 hr. The conditions noted are these: MCF7, 24 h, read-out: GI.
Another test concerns HCT-15. As to the kind of experiment: Cytotoxicity against Homo sapiens (human) HCT15 cells assessed as growth inhibition at 10 uM after 24 hr. The conditions noted are these: HCT-15, 24 h, read-out: GI.
A further test deals with RPMI-8226. As to the kind of experiment: Cytotoxicity against Homo sapiens (human) RPMI8226 cells assessed as growth inhibition at 10 uM after 24 hr. To be noted: RPMI-8226, 24 h, read-out: GI.
Another test has as its system TK-10. As to the kind of experiment: Cytotoxicity against Homo sapiens (human) TK10 cells assessed as growth inhibition at 10 uM after 24 hr. To be noted: TK-10, 24 h, read-out: GI.
The next test concerns 786-0. Nature of the test: Cytotoxicity against Homo sapiens (human) 786-0 cells assessed as growth inhibition at 10 uM after 24 hr. The conditions noted are these: 786-0, 24 h, read-out: GI.
Where [3] appears, read: read-out: LC50 (the source's name).

For the compound `Nc1cc(-c2ccc(Cl)cc2)nn1-c1nc(=O)c(/C=C/c2ccco2)n[nH]1`, the inhibition of growth at 10 µM in the test with HT-29 is 55.8%; in the test on SN12C, 31.8%; with HL-60(TB), 4.83%; in the test on MCF7 it was 54.1%; with HCT-15, 61.9%; in the test on RPMI-8226 it was 56.7%. For the same compound, the inhibition of growth at 10 µM amounted to 48.8% in the test with TK-10 and 53.1% in the test with 786-0. For the same compound, the figures for the GI50 (in [1]; in test [2]; with MDA-MB-435) were 6.39 µM, 4.99 µM and 5.22 µM, respectively. For the same compound, the TGI was 48.1 µM in [1], 44.5 µM in test [2] and greater than 100 µM with MDA-MB-435. Besides, the CC50 (in test [1] (setting [3]); in test [2] (setting [3]); in the test on MDA-MB-435 (setting [3])) was greater than 100 µM throughout.

Broadly, the GI50 is the concentration that inhibits growth by half. A lower GI50 goes with greater sensitivity of the cells. A word on the TGI: it is the concentration giving total growth inhibition. Low values mean more potent growth arrest, high ones less potent growth arrest.

The values are drawn from ChEMBL document CHEMBL3045199, “Synthesis of some (E)-6-[2-(furan-2-yl)ethenyl]-1,2,4-triazin-5-ones and their biological evaluation as antitumor agents” (2013).
